The record followed here is ChEMBL document CHEMBL5260813, “An overview on the recent developments of 1,2,4-triazine derivatives as anticancer compounds” (Eur J Med Chem, 2017).

Structures are written as SMILES. Some results are limits rather than exact numbers.

The test system of one assay is BT-474. As to the kind of experiment: Antiproliferative activity against human BT-474 cells assessed as inhibition of cell growth. In kind it is functional, cell-based.
For assay [1], the target named is Vascular endothelial growth factor receptor 2 (Homo sapiens, UniProt P35968). Put plainly: Inhibition of VEGFR-2 (unknown origin).
The target in assay [2] is Epidermal growth factor receptor (Homo sapiens, UniProt P00533). Put plainly: Inhibition of EGFR (unknown origin).
For another assay, the system named is OVCAR-4. As to the kind of experiment: Antiproliferative activity against human OVCAR-4 cells assessed as cell growth inhibition. The format is functional, cell-based.
Assay [3] concerns the target T1, Tyrosine-protein kinase SYK (Homo sapiens, UniProt P43405). As to the kind of experiment: Inhibition of human SYK using 5-Fluo-Ahx-GAPDYENLQELNKK-Amid as substrate in presence of ATP by microfluidic mobility shift assay.
Assay [4] concerns the target T1, Tyrosine-protein kinase SYK. Put plainly: Inhibition of SYK in human Ramos cells assessed as reduction in anti IgM-induced phosphorylation of BLNK by flow cytometry assay. In kind it is cell-based.
Assay [5] relates to HT-29. Put plainly: Antiproliferative activity against human HT-29 cells assessed as inhibition of cell growth by SRB assay. In kind it is functional, cell-based.
The test system of assay [6] is HT-29. Put plainly: Potency index, ratio of tirapazamine IC50 to compound IC50 for antiproliferative activity against human HT-29 cells. The format is functional.
The target of assay [7] is Cyclin-dependent kinase 2/cyclin E1 (Homo sapiens, UniProt P24941). Put plainly: Inhibition of CDK2/cyclin E1 (unknown origin) expressed in Sf9 cells.
For the next assay, the system named is HCT-116. Put plainly: Antiproliferative activity against human HCT-116 cells assessed as inhibition of cell growth. The format is functional, cell-based.
For assay [8], the system named is MCF7. Put plainly: Antiproliferative activity against human MCF7 cells assessed as inhibition of cell growth. The format is functional, cell-based.
A further assay relates to HepG2. Put plainly: Antiproliferative activity against human HepG2 cells assessed as cell growth inhibition. The format is functional, cell-based.
The next assay deals with HL-60. As to the kind of experiment: Antiproliferative activity against human HL-60 cells assessed as inhibition of cell growth incubated for 72 hrs by MTT assay. The format is functional, cell-based. Particulars: HL-60, 72 h.
The subject of another assay is MOLT-4. Put plainly: Antiproliferative activity against human MOLT-4 cells assessed as inhibition of cell growth incubated for 72 hrs by MTT assay. The format is functional, cell-based. Conditions: MOLT-4, 72 h.
The subject of assay [9] is MCF7. Put plainly: Cytotoxicity against human MCF7 cells assessed as inhibition of cell growth incubated for 72 hrs by MTT assay. The format is functional, cell-based. Particulars: MCF7, 72 h.

Vascular endothelial growth factor receptor 2, sequence (P35968 whole entry): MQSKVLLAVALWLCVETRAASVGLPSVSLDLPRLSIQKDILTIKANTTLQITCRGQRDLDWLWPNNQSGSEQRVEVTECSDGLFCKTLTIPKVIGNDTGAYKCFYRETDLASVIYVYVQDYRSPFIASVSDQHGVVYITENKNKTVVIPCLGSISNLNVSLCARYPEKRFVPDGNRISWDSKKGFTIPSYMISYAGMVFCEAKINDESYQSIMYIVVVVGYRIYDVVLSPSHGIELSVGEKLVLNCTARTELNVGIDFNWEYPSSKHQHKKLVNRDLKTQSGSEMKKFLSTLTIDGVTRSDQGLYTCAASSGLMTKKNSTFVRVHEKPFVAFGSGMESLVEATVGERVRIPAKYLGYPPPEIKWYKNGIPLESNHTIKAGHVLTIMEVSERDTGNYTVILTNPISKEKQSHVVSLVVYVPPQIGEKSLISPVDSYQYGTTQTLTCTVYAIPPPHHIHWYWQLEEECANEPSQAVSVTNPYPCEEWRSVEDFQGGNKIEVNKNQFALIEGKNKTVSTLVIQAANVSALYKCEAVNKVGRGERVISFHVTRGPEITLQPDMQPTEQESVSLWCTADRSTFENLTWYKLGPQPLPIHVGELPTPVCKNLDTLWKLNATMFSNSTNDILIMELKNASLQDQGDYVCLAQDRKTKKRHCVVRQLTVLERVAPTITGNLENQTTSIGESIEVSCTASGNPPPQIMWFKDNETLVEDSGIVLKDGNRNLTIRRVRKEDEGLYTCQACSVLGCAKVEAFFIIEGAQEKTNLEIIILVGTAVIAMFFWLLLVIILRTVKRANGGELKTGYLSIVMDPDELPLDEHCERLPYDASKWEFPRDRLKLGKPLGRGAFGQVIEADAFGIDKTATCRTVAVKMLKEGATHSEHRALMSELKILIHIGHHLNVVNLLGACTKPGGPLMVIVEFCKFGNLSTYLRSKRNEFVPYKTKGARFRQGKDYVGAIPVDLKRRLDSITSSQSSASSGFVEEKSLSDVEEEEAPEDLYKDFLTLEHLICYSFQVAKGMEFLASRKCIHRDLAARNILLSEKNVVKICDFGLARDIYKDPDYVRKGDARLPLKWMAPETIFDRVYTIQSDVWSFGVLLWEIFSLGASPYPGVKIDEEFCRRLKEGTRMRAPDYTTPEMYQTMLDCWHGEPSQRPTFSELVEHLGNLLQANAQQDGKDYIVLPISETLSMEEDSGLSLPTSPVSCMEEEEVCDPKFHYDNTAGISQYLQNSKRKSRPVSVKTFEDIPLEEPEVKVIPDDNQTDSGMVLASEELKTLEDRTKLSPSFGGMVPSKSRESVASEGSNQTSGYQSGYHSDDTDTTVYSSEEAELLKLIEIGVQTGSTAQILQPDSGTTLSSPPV
Epidermal growth factor receptor, sequence (P00533 whole entry): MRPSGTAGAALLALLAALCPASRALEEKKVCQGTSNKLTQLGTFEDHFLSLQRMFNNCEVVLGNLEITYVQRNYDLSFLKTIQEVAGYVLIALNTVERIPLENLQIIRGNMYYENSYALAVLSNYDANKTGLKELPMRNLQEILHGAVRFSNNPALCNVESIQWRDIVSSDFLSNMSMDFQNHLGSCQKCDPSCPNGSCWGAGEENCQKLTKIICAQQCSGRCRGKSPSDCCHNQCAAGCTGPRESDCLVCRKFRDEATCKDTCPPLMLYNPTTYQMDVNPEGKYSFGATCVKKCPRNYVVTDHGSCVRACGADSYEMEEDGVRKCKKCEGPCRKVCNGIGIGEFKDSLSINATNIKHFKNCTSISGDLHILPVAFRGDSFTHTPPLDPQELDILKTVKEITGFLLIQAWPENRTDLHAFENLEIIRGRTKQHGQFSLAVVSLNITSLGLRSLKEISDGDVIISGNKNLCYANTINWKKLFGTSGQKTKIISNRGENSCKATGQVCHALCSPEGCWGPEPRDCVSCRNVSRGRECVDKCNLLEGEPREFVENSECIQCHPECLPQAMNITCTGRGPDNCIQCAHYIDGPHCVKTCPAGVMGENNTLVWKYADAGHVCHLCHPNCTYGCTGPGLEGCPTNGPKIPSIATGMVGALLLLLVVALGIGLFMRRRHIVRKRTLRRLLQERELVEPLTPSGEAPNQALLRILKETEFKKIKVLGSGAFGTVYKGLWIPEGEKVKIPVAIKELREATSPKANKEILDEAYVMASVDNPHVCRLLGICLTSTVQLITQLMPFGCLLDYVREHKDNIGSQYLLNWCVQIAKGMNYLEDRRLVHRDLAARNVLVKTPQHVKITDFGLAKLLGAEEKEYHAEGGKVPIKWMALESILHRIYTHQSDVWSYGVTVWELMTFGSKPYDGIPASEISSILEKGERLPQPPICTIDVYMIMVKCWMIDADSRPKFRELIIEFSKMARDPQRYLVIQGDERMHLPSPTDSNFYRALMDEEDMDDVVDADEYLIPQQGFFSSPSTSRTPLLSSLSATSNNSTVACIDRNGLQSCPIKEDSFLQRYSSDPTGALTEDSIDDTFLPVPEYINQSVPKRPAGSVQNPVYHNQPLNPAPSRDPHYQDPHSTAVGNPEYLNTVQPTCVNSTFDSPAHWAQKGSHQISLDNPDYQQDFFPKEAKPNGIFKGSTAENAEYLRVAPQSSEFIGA

Turning to `CCCc1nc2c(=O)n(C)c(=O)nc-2n(C)n1`, in the assay on BT-474, the IC50 came to 0.9 µM. The same measure, in the same setting: under `Cn1nc(Cc2ccccc2)nc2c(=O)n(C)c(=O)nc1-2` stands 0.9 µM. On to `CCn1nc(-c2ccccc2)nc2c(=O)n(C)c(=O)nc1-2`, for which the 50% inhibitory concentration (IC50) in the assay with BT-474 was determined as 0.9 µM.

On to `Cn1nc(-c2ccccc2)nc2c(=O)n(C)c(=O)nc1-2`, for which the IC50 in the assay on BT-474 is 0.9 µM. For the compound `Cc1cc2c(Nc3ccc(C)c(O)c3)ncnn2c1`, the 50% inhibitory concentration (IC50) is 0.654 µM in [1] and 0.405 µM in [2]. As to `Cc1ccc(Nc2ncnn3cccc23)cc1O`, the IC50 in assay [1] came out at 0.51 µM; in [2] it was 1.44 µM.

In the case of `Cc1ccc(Nc2ncnn3cc(C)c(C)c23)cc1O`, the IC50 was found to be 0.2 µM in assay [1] and 0.023 µM in [2]. `Cc1ccc(Nc2ncnn3c(C)ccc23)cc1O` gave an IC50 in assay [1] of 29.4 µM.

As to `Cc1ccc(Nc2ncnn3ccc(C)c23)cc1O`, the half-inhibitory concentration (IC50) in [1] was 0.346 µM; in assay [2], 0.066 µM. With `Cc1c(-c2ccccc2)c(C#N)c2nnc(C(N)=O)c(N)n12`, the IC50 in the assay with OVCAR-4 was 2.77 µM. Same read-out and setting: under `CCOC(=O)c1nnc2c(C#N)c(-c3ccccc3)c(C)n2c1N` stands 2.77 µM. As for `NC(=O)c1nnc(N[C@@H]2CCCC[C@@H]2N)nc1Nc1cccc2[nH]ccc12`, in [3], the IC50 came out at 0.0008 µM. As for `NC(=O)c1nnc(N[C@@H]2CCCC[C@@H]2N)nc1Nc1cccc2c(Cl)c[nH]c12`, the concentration for half-maximal inhibition (IC50) in assay [4] is 0.014 µM; in assay [3] it was 0.0008 µM. The matching figures for `NC(=O)c1nnc(N[C@@H]2CCCC[C@@H]2N)nc1Nc1cc(F)cc2cc[nH]c12`: 0.014 µM and 0.0008 µM. The matching figures for `Cc1c[nH]c2c(Nc3nc(N[C@@H]4CCCC[C@@H]4N)nnc3C(N)=O)cccc12`: 0.014 µM and 0.0008 µM. With `Cn1ncc2c(Nc3nc(N[C@@H]4CCCC[C@@H]4N)nnc3C(N)=O)cccc21`, the IC50 stood at 0.014 µM in [4] and 0.0008 µM in [3]. Turning to `NC(=O)c1nnc(N[C@@H]2CCCC[C@@H]2N)nc1Nc1cccc2[nH]ncc12`, the values for the half-inhibitory concentration (IC50) in assay [4] and in [3] were 0.014 µM and 0.0008 µM, respectively. Take `Cc1c[nH]c2c(Nc3nc(N[C@@H]4CCCC[C@@H]4N)nnc3C(N)=O)cc(F)cc12`: the half-inhibitory concentration (IC50) in assay [4] is 0.014 µM.

Turning to `Nc1nc2ccccc2[n+]([O-])n1`, the 50% inhibitory concentration (IC50) with HT-29 [5] was above 0.5 µM. For the same compound, the “Ratio IC50” value in the assay with HT-29 [6] is on record as 2. `Oc1ccc(-n2nc(-c3cc(O)c(O)c(O)c3)c3nc(-c4ccc(Cl)cc4)nnc32)cc1` showed a 50% inhibitory concentration (IC50) in [7] above 20 µM. Consider `O=c1c(/C=C/c2cccs2)nnc(S)n1NC(=S)Nc1ccccc1`, for which the concentration for half-maximal inhibition (IC50) in the assay with HCT-116, with MCF7 [8] and in the assay on HepG2 was 8.79 µM throughout. On to `O=c1c(/C=C/c2cccs2)nnc(S)n1/N=C/c1cccs1`, for which the 50% inhibitory concentration (IC50) with HCT-116, with MCF7 [8] and in the assay with HepG2 was 8.79 µM in each case. With `Oc1cc(-c2nn(-c3ccc(Cl)cc3)c3nnc(-c4ccc(Cl)cc4)nc23)cc(O)c1O`, in [7], the 50% inhibitory concentration (IC50) is above 20 µM. Turning to `Clc1ccc(CSc2nnc3c(n2)-c2cccc4cccc-3c24)cc1`, the IC50 in the assay with HL-60, with MOLT-4 and in the assay on MCF7 [9] was 30 µM each time. For the compound `Oc1ccc(-n2nc(-c3cc(O)c(O)c(O)c3)c3nc(-c4ccccc4)nnc32)cc1`, 14.1 µM corresponded to half-maximal inhibition in [7] (IC50). Turning to `CCOC(=O)c1nnc2c(C#N)c(C)c(-c3ccccc3)n2c1N`, in the assay on OVCAR-4, the IC50 came to 2.77 µM.

In the case of `Nn1c(S)nnc(/C=C/c2cccs2)c1=O`, the 50% inhibitory concentration (IC50) in the assay with HCT-116, in the assay with MCF7 [8] and with HepG2 was 8.79 µM throughout. On to `O=C1CN2C(=O)/C(=C/c3ccc([N+](=O)[O-])cc3)N=C(c3ccccc3)N2C(=S)N1`, for which the 50% inhibitory concentration (IC50) with HepG2 is 2.67 µM. For `N#CCNc1nc2ccccc2[n+]([O-])n1`, the IC50 with HT-29 [5] is above 0.3 µM. Moreover, the “Ratio IC50” value in the assay on HT-29 [6] stood at 1.9.

`Oc1ccccc1-n1nc(-c2cc(O)c(O)c(O)c2)c2nc(-c3ccc(Cl)cc3)nnc21`: the IC50 in [7] is above 20 µM. Take `O=c1c(/C=C/c2cccs2)nnc(S)n1/N=C/c1ccccc1`: the IC50 in the assay with HCT-116, in the assay on MCF7 [8] and with HepG2 was 8.79 µM each time. Consider `CCc1nc2ccccc2[n+]([O-])n1`, for which the IC50 with HT-29 [5] was above 3 µM. In addition, in the assay on HT-29 [6], the “Ratio IC50” value was found to be 1.3. Consider `CN(C)CCNc1nc2ccccc2[n+]([O-])n1`, for which, in the assay with HT-29 [5], the IC50 was above 1 µM. For the same compound, in the assay with HT-29 [6], the “Ratio IC50” value was found to be 3.9. As for `Cc1c(C#N)c2nnc(C#N)c(N)n2c1-c1ccccc1`, the IC50 in the assay on OVCAR-4 came out at 2.77 µM. As for `CSc1nnc2c(n1)-c1cccc3cccc-2c13`, the IC50 with HL-60, in the assay on MOLT-4 and in the assay with MCF7 [9] was 30 µM in each case. Regarding `CC(=O)c1nnc2c(C#N)c(C)c(-c3ccccc3)n2c1C`, the 50% inhibitory concentration (IC50) in the assay on OVCAR-4 came to 2.77 µM.

Take `O=[N+]([O-])c1ccccc1CSc1nnc2c(n1)-c1cccc3cccc-2c13`: the 50% inhibitory concentration (IC50) with HL-60, in the assay with MOLT-4 and in the assay with MCF7 [9] was 30 µM throughout. For the compound `CCSc1nnc2c(n1)-c1cccc3cccc-2c13`, the IC50 with HL-60, with MOLT-4 and with MCF7 [9] was 30 µM each time.

On to `CN(C)CCCNc1nc2ccccc2[n+]([O-])n1`, for which, in the assay on HT-29 [5], the IC50 amounted to 0.83 µM. Further, the “Ratio IC50” value in the assay on HT-29 [6] came out at 1.2. For `COc1nc2ccccc2[n+]([O-])n1` the same measures were above 0.3 µM and 3.3. The matching figures for `CNCCNc1nc2ccccc2[n+]([O-])n1`: 2.3 µM and 6.11. For the compound `Nn1c(SC2Sc3nnc(/C=C/c4cccs4)c(=O)n3NC2=O)nnc(/C=C/c2cccs2)c1=O` (stereo not drawn), the IC50 in the assay on HCT-116, in the assay on MCF7 [8] and in the assay with HepG2 was 8.79 µM each time. Consider `CC(=O)Nn1c(S)nnc(/C=C/c2cccs2)c1=O`, for which the IC50 with HCT-116, with MCF7 [8] and with HepG2 was 8.79 µM throughout. Consider `[O-][n+]1nc(CCO)nc2ccccc21`, for which the IC50 with HT-29 [5] is above 3 µM. The “Ratio IC50” value in the assay with HT-29 [6] turned out to be 1.2. The compound `Oc1cccc(-n2nc(-c3cc(O)c(O)c(O)c3)c3nc(-c4ccccc4)nnc32)c1` came in with a 50% inhibitory concentration (IC50) in [7] of 5.2 µM. With `Clc1ccc(CSc2nnc3c(n2)-c2cccc4cccc-3c24)cc1Cl`, the 50% inhibitory concentration (IC50) in the assay on HL-60, with MOLT-4 and in the assay on MCF7 [9] was 30 µM each time. `Cc1c(-c2ccccc2)c(C#N)c2nnc(C#N)c(N)n12`: the IC50 in the assay on OVCAR-4 stood at 2.77 µM. With `c1ccc(CSc2nnc3c(n2)-c2cccc4cccc-3c24)cc1`, the IC50 with HL-60, in the assay with MOLT-4 and in the assay on MCF7 [9] was 30 µM each time.

Take `Oc1ccccc1-n1nc(-c2cc(O)c(O)c(O)c2)c2nc(-c3ccccc3)nnc21`: in assay [7], the IC50 stood at 15.1 µM. With `Clc1ccc(CSc2nnc3c(n2)-c2cccc4cccc-3c24)c(Cl)c1`, the concentration for half-maximal inhibition (IC50) in the assay on HL-60, with MOLT-4 and in the assay on MCF7 [9] was 30 µM each time.

Consider `COc1cc(-c2nnc3c(n2)c(-c2cc(O)c(O)c(O)c2)nn3-c2cc(OC)c(OC)c(OC)c2)cc(OC)c1OC`, for which inhibition in assay [7] was half-maximal at 4.5 µM (IC50).

For `CCn1nc(-c2cccs2)nc2c(=O)n(C)c(=O)nc1-2`, the half-maximal inhibitory concentration (IC50) with BT-474 worked out at 0.9 µM.

Take `Cc1nc2c(=O)n(C)c(=O)nc-2n(C)n1`: in the assay with BT-474, the 50% inhibitory concentration (IC50) was 0.9 µM.

Turning to `N#Cc1c[nH]c2c(Nc3nc(N[C@@H]4CCCCC4N)nnc3C(N)=O)cccc12` (single isomer, unassigned), the IC50 in assay [4] came to 0.014 µM; in assay [3] it was 0.0008 µM.
